# Where a name gives a salt, the structure may show the parent alone. Read-outs that look alike come from different tables or passages of the source. Marks after values point to notes of the source that are not given here.
# How the values were obtained:
# MCF-7 = assay: SRB cytotoxicity, MCF-7; assay type: cell-based, human; conditions: Table 1C; SRB, 72 h; read-out: IC50
# How it was run: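 Monolayer MCF-7 cultures exposed to six to seven drug concentrations in duplicate, then fixed with trichloroacetic acid and stained 30 min with 0.4% sulforhodamine B. Bound dye extracted with unbuffered Tris base, absorbance read at 570 nm; values derived by median-effect plot analysis.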
# DC-3F/ADX = assay: cells; assay type: cell-based, hamster
# How it was run: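 Cell protein content measured by sulforhodamine B staining after trichloroacetic acid fixation, read at 570 nm; duplicate runs of six to seven concentrations fitted by median-effect analysis. Lines are actinomycin D-resistant DC-3F hamster lung sublines (ADII, ADX), kept under selecting drug in RPMI 1640-10% FBS.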
# SK-N-FI = assay: cells; assay type: cell-based, human; conditions: Table 1C
# How it was run: (§1)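 Cellular protein content measured with sulforhodamine B after trichloroacetic acid fixation, read at 570 nm. Each duplicate run used six to seven concentrations, analysed by the median-effect method. Cells were cultured at 37 °C, 5% CO2 in RPMI 1640-10% FBS, and drug-resistant lines were maintained with their selecting agent.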
# [1] = test system: DC-3F hamster lung fibroblast cell line; assay: SRB cytotoxicity, DC-3F; assay type: cell-based
# How it was run: as §1
# P388/Adr = assay: cells; assay type: cell-based, murine; conditions: Table 1C
# How it was run: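 Growth was read by XTT/PMS reduction over 4 h at 37 °C after 72 h of compound treatment, with absorbance at 450 nm and 630 nm. CCRF-CEM, P388 and their resistant sublines, grown continuously with their selecting drugs, were cultured in duplicate at 5×10^4 cells/mL. The medium was RPMI-1640 with 10% FBS.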
# [2] = test system: PC-3 Human Prostate Carcinoma; assay: PC-3 xenograft; assay type: in vivo, nude mice; conditions: for Therapeutic effect Rank Order: PC-3; for Average Body Weight, Day 5: initial weight
# [3] = test system: human ovarian adenocarcinoma SK-OV-3
# [4] = test system: human neuroblastoma SK-N-As; assay: SRB cytotoxicity, SK-N-As; assay type: cell-based; conditions: Table 1C; SRB, 72 h; read-out: IC50
# How it was run: as §1
# [5] = test system: Human CCRF-CEM/VBL Xenograft; assay: CCRF-CEM/VBL xenograft in scid mice; assay type: in vivo, CB-17 scid mice
# Human CCRF-CEM Xenograft = assay: CCRF-CEM xenograft in scid mice; assay type: in vivo, CB-17 scid mice
# [6] = Table 1C, SRB, 72 h, read-out: IC50
# [7] = 6 hr i.v. infusion: dEpoB 40, Taxol 24 mg/kg
# [8] = PC-3 Prostate, dEpoB 40 mg/kg Q2D x 3, Taxol 15 mg/kg Q2D x 3
# [9] = dEpoB 30 mg/kg 18 hr i.v. infusion, Taxol 16 mg/kg 6 hr infusion, VBL 2 and VP-16 25 mg/kg i.v. inj
# [10] = dEpoB 50 mg/kg, 6 hr i.v. infusion
# [11] = 35 mg/kg i.p. Q2Dx5 from day 9, day 15
# [12] = 35 mg/kg i.p. Q2Dx5 from day 9, day 17
# [13] = 35 mg/kg i.p. Q2Dx5 from day 9, day 19
# [14] = dEpo B 15 mg/kg i.v. Q2Dx5 from day 9
# [15] = dEpo B 15 mg/kg i.v. Q2Dx5 from day 9, day 15
# [16] = dEpo B 15 mg/kg i.v. Q2Dx5 from day 9, day 17
# [17] = dEpo B 15 mg/kg i.v. Q2Dx5 from day 9, day 19
# [18] = dose 0.2 i.p. QD d7-10,14,15, day 7
# [19] = dose 0.2 i.p. QD d7-10,14,15, day 12
# [20] = dose 0.2 i.p. QD d7-10,14,15, day 17
# [21] = dose 0.2 i.p. QD d7-10,14,15, day 22
# [22] = dose 0.4 i.p. QD d7-10,14,15, day 7
# [23] = dose 0.4 i.p. QD d7-10,14,15, day 12
# [24] = dose 0.4 i.p. QD d7-10,14,15, day 17
# [25] = dose 0.4 i.p. QD d7-10,14,15, day 22
smiles,measurement,setting,value
"C/C1=C/C[C@@H](/C(C)=C/c2csc(C)n2)OC(=O)C[C@H](O)C(C)(C)C(=O)[C@H](C)[C@@H](O)[C@@H](C)CCC1 [Desoxyepothilone B, desoxyepothilone B]",IC50,MCF-7,2.9 nM
same,fold resistance vs parent DC-3F,DC-3F/ADX; DC-3F/ADX cells,0.9 fold
same,folds of resistance (IC50 ratio vs parent cell line),"DC-3F/ADX; Table 1C, DC-3F/ADX vs DC-3F",(0.9x)
same,IC50,DC-3F/ADX; [6],0.91 nM
same,folds of resistance (IC50 ratio vs parent cell line),SK-N-FI; SK-N-FI vs SK-N-As,(2.2x)
same,IC50,"SK-N-FI; SRB, 72 h, read-out: IC50",46 nM
same,IC50,[1]; [6],0.97 nM
same,folds of resistance (IC50 ratio vs parent cell line),P388/Adr; P388/Adr vs P388/O,(0.62x)
same,IC50,"P388/Adr; XTT, 72 h, read-out: IC50",4.2 nM
same,"Average Body Weight (change), Day 9",[2]; [7],-1.7 g
same,"Average Body Weight (change), Day 11",[2]; [7],-3.4 g
same,"Average Body Weight (change), Day 13",[2]; [7],-2.7 g
same,"Average Tumor Size (TC), Day 9",[2]; [7],0.40 TC
same,"Average Tumor Size (TC), Day 11",[2]; [7],0.19 TC
same,"Average Tumor Size (TC), Day 13",[2]; [7],0.12 TC
same,Tumor Disappearance,[2]; [7],0/3
same,Therapeutic effect Rank Order,[2]; i.v. infusion (order wraps over rows r24-r25),dEpoB >> VP-16
same,Therapeutic effect Rank Order,[2]; i.v./i.p. (order wraps over rows r11-r12),Taxol ® > dEpoB >>
same,Lowest Average Tumor Size (T/C),[2]; [8],0.12 T/C
same,Tumor Disappearance,[2]; [8],0
same,Therapeutic Effects dEpoB vs Taxol,"[2]; PC-3 Prostate, dEpoB 40 mg/kg Q2D x 3 vs Taxol 15 mg/kg Q2D x 3",<<
same,"Average Body Weight (change), Day 9",[2]; [9],-2.2 g
same,"Average Body Weight (change), Day 11",[2]; [9],-5.9 g
same,"Average Body Weight (change), Day 13",[2]; [9],-5.8 g
same,"Average Tumor Size (TC), Day 9",[2]; [9],0.17 TC
same,"Average Tumor Size (TC), Day 11",[2]; [9],0.06 TC
same,"Average Tumor Size (TC), Day 13",[2]; [9],0.06 TC
same,Tumor Disappearance,[2]; [9],0/3
same,"Average Body Weight (change), Day 9",[2]; [10],-2.1 g
same,"Average Body Weight (change), Day 11",[2]; [10],-3.0 g
same,"Average Body Weight (change), Day 13",[2]; [10],-2.6 g
same,"Average Tumor Size (TC), Day 9",[2]; [10],0.37 TC
same,"Average Tumor Size (TC), Day 11",[2]; [10],0.13 TC
same,"Average Tumor Size (TC), Day 13",[2]; [10],0.03 TC
same,Tumor Disappearance,[2]; [10],0/3
same,"Average Body Weight, Day 5",[2]; [7],28.3 g
same,"Average Body Weight, Day 5",[2]; [9],29.4 g
same,"Average Body Weight, Day 5",[2]; [10],28.1 g
same,Toxicity Death,[3]; 35 mg/kg i.p. Q2Dx5 from day 9,0/6
same,Tumor Disapp.,[3]; 35 mg/kg i.p. Q2Dx5 from day 9,0/6
same,Average Body Weight Change,"[3]; 35 mg/kg i.p. Q2Dx5 from day 9, day 13",-1.7 g
same,Average Body Weight Change,[3]; [11],-2.1 g
same,Average Tumor Size (T/C),[3]; [11],0.57
same,Average Body Weight Change,[3]; [12],-2.1 g
same,Average Tumor Size (T/C),[3]; [12],0.33
same,Average Body Weight Change,[3]; [13],-2.4 g
same,Average Tumor Size (T/C),[3]; [13],0.35
same,Average Tumor Size (T/C),"[3]; 35 mg/kg i.p. Q2Dx5 from day 9, day 21",0.28
same,Toxicity Death,[3]; [14],4/6^b
same,Tumor Disapp.,[3]; [14],0/6
same,Average Body Weight Change,"[3]; dEpo B 15 mg/kg i.v. Q2Dx5 from day 9, day 13",0 g
same,Average Body Weight Change,[3]; [15],-0.6 g
same,Average Tumor Size (T/C),[3]; [15],0.86
same,Average Body Weight Change,[3]; [16],-1.1 g
same,Average Tumor Size (T/C),[3]; [16],0.56
same,Average Body Weight Change,[3]; [17],-2.6 g
same,Average Tumor Size (T/C),[3]; [17],0.50
same,Average Tumor Size (T/C),"[3]; dEpo B 15 mg/kg i.v. Q2Dx5 from day 9, day 21",0.44
same,tumor size treated/control,"[3]; dEpoB 35 mg/kg i.p. Q2Dx5, day 21",0.28
same,Lowest Average Tumor Size (T/C),"[3]; mouse, in vivo",0.17 T/C
same,Therapeutic Effects dEpoB vs Taxol,"[3]; mouse, in vivo",<<
same,Therapeutic effect Rank Order,"[3]; mouse, in vivo",Taxol ® ≈ dEpoB
same,Tumor Disappearance,"[3]; mouse, in vivo",0
same,Therapeutic effect Rank Order,"[3]; mouse, in vivo, iv",Taxol ® > dEpoB
same,IC50,[4],21 nM
"CC[C@]1(O)C[C@@H]2CN(CCc3c([nH]c4ccccc34)[C@@](C(=O)OC)(c3cc4c(cc3OC)N(C)[C@H]3[C@@](O)(C(=O)OC)[C@H](OC(C)=O)[C@]5(CC)C=CCN6CC[C@]43[C@@H]65)C2)C1 [Vinblastine, Vinblastine sulfate]",Average weight change,[5]; [18],−0.3
same,Average tumor volume (control = 1.00),[5]; [19],0.86
same,Average weight change,[5]; [19],−0.8
same,Average tumor volume (control = 1.00),[5]; [20],0.66
same,Average weight change,[5]; [20],−1.4
same,Average tumor volume (control = 1.00),[5]; [21],0.67
same,Average weight change,[5]; [21],−0.3
same,Average weight change,[5]; [22],0
same,Average tumor volume (control = 1.00),[5]; [23],1.02
same,Average weight change,[5]; [23],−1.2
same,Average tumor volume (control = 1.00),[5]; [24],0.57
same,Average weight change,[5]; [24],−1.8
same,Average tumor volume (control = 1.00),[5]; [25],0.62
same,Average weight change,[5]; [25],−0.5
same,IC50,"DC-3F/ADX; DC3F/ADX, Table 3",1070 nM
same,Average weight change,Human CCRF-CEM Xenograft; [18],+0.2
same,Average tumor volume (control = 1.00),Human CCRF-CEM Xenograft; [19],0.45
same,Average weight change,Human CCRF-CEM Xenograft; [19],−0.8
same,Average tumor volume (control = 1.00),Human CCRF-CEM Xenograft; [20],0.25
same,Average weight change,Human CCRF-CEM Xenograft; [20],−1.5
same,Average tumor volume (control = 1.00),Human CCRF-CEM Xenograft; [21],0.29
same,Average weight change,Human CCRF-CEM Xenograft; [21],−0.3
same,Average weight change,Human CCRF-CEM Xenograft; [22],−0.1
same,Average tumor volume (control = 1.00),Human CCRF-CEM Xenograft; [23],0.31
same,Average weight change,Human CCRF-CEM Xenograft; [23],−1.4
same,Average tumor volume (control = 1.00),Human CCRF-CEM Xenograft; [24],0.27
same,Average weight change,Human CCRF-CEM Xenograft; [24],−1.8
same,Average tumor volume (control = 1.00),Human CCRF-CEM Xenograft; [25],0.30
same,Average weight change,Human CCRF-CEM Xenograft; [25],−0.7
same,IC50,"[1]; Mesocricetus auratus, DC3F, Table 3",2.65 nM
same,"Average Body Weight (change), Day 9",[2]; [9],+1.4 g
same,"Average Body Weight (change), Day 11",[2]; [9],+2.1 g
same,"Average Body Weight (change), Day 13",[2]; [9],+3.0 g
same,"Average Tumor Size (TC), Day 9",[2]; [9],0.37 TC
same,"Average Tumor Size (TC), Day 11",[2]; [9],0.13 TC
same,"Average Tumor Size (TC), Day 13",[2]; [9],0.03 TC
same,Tumor Disappearance,[2]; [9],1/3
same,"Average Body Weight, Day 5",[2]; [9],23.5 g
